# Laboratory results taken from patent US4742049A, “Semisynthetic erythromycin antibiotics” (Abbott Laboratories, priority 1986, dated 1988).
# Read-outs that look alike come from different tables or passages of the source.
# Experiments:
# [1] = tested on: Providencia stuartii; test: antimicrobial spectrum, agar dilution MIC; type: cell-based; settings: strain CMX 640, BHI agar, 20-24 hours
# Method: (§1) Twelve petri dishes containing successive aqueous dilutions of the test compound mixed with 10 ml of sterilized Brain Heart Infusion agar (Difco 0418-01-5) are prepared. Each plate is inoculated with 1:100 (or 1:10 for slow-growing strains, primarily Micrococcus and Streptococcus) dilutions of up to 32 different microorganisms, using a Steers replicator block. The inoculated plates are incubated at 35°-37° C. for 20-24 hours. In addition, a control plate, using BHI agar containing no test compound, is prepared and incubated at the beginning and end of each test.
# (§2) An additional plate containing a compound having known susceptibility patterns for the organisms being tested and belonging to the same antibiotic class as the test compound is also prepared and incubated as a further control, as well as to provide test-to-test comparability.
# (§3) After incubation, each disk is read. The MIC is defined as the lowest concentration of drug yielding no growth, a slight haze, or sparsely isolated colonies on the inoculum spot as compared to the growth control.
# [2] = tested on: Pseudomonas aeruginosa; test: antimicrobial spectrum, agar dilution MIC; type: cell-based; settings: Pseudomonas aeruginosa, BHI agar, 20-24 hours
# Method: as §1, §2, §3
# [3] = tested on: Staph. aureus; test: antimicrobial spectrum, agar dilution MIC; type: cell-based; settings: Staphylococcus aureus, BHI agar, 20-24 hours
# Method: as §1, §2, §3
# [4] = tested on: Staph. epidermidis; test: antimicrobial spectrum, agar dilution MIC; type: cell-based; settings: Staphylococcus epidermidis
# Method: as §1, §2, §3
# [5] = tested on: Strep. agalactiae; test: antimicrobial spectrum, agar dilution MIC; type: cell-based; settings: Streptococcus agalactiae, strain CMX 508; BHI agar, 20-24 hours
# Method: as §1, §2, §3
# [6] = tested on: Strep. bovis; test: antimicrobial spectrum, agar dilution MIC; type: cell-based; settings: Streptococcus equinus, strain A5169; BHI agar, 20-24 hours
# Method: as §1, §2, §3
# [7] = tested on: Strep. faecium; test: antimicrobial spectrum, agar dilution MIC; type: cell-based; settings: Enterococcus faecium
# Method: as §1, §2, §3
# [8] = tested on: Strep. pyogenes; test: antimicrobial spectrum, agar dilution MIC; type: cell-based; settings: Streptococcus pyogenes, BHI agar, 20-24 hours
# Method: as §1, §2, §3
# [9] = tested on: E. coli; test: antimicrobial spectrum, agar dilution MIC; type: cell-based; settings: Escherichia coli, BHI agar, 20-24 hours
# [10] = tested on: Micrococcus luteus; test: antimicrobial spectrum, agar dilution MIC; type: cell-based; settings: 20-24 hours
# [11] = tested on: Lactobacillus Casei; test: antimicrobial spectrum, agar dilution MIC; type: cell-based; settings: Lacticaseibacillus casei, ATCC7469, strain ATCC 7469; BHI agar, 20-24 hours
# [12] = tested on: Ent. aerogenes; test: antimicrobial spectrum, agar dilution MIC; type: cell-based; settings: Klebsiella aerogenes, BHI agar, 20-24 hours
# [13] = tested on: Klebsiella pneumoniae; test: antimicrobial spectrum, agar dilution MIC; type: cell-based; settings: strain 8045, BHI agar, 20-24 hours
# [14] = tested on: Pseudomonas cepacia; test: antimicrobial spectrum, agar dilution MIC; type: cell-based; settings: Burkholderia cepacia, strain 2961; BHI agar, 20-24 hours; read-out: MIC
# Method: (§4) Erythromycin A was used for this purpose.
# (§5) After incubation, each disk is read.
# [15] = tested on: Acinetobacter SP; test: antimicrobial spectrum, agar dilution MIC; type: cell-based; settings: strain CMX 669, BHI agar, 20-24 hours
# [16] = tested on: Haemophilus influenzae; test: MIC against strains of Haemophilus influenzae; type: cell-based; settings: Haemophilus influenzae, read-out: MIC
# Method: as §4, §5
# In the manner of Example 23, the efficacy of compounds of this invention were tested against numerous strains of Haemophilus influenzae.
# [17] = tested on: gut contractions (stomach, duodenum, jejunum); settings: dog, in vivo, iv, 4 mg/kg
# Method: Compounds of this invention have been tested for gastrointestinal stimulating activity in a dog model at 4 mg/kg intravenously. Contractions in the gut were recorded with surgically implanted strain gauges. […] Ratios were calculated for the stomach, duodenum and jejunum, and a final arithmetic mean index was calculated and reported in Table 1.
# [18] = tested on: gastointestinal motility; test: gastrointestinal motility in sensitive animal models (general statement); type: in vivo; settings: compared with parent erythromycin compound
# [19] = strain 3519, BHI agar, 20-24 hours
# [20] = strain 3519 RARI, BHI agar, 20-24 hours
# [21] = ATCC8043, strain ATCC 8043, BHI agar, 20-24 hours
# [22] = ATCC13048, strain ATCC 13048, read-out: MIC
SMILES,MIC [1] [µg/mL],MIC ([2]; strain 5007) [µg/mL],MIC ([2]; strain BMH10) [µg/mL],MIC ([2]; strain K799/WT) [µg/mL],"MIC ([3]; ATCC6538P, strain ATCC 6538P) [µg/mL]",MIC ([3]; strain 45) [µg/mL],MIC ([3]; strain 45 RAR 2) [µg/mL],MIC ([3]; strain A5177) [µg/mL],MIC ([3]; strain CMX 686B) [µg/mL],"MIC [4, 20] [µg/mL]",MIC [5] [µg/mL],MIC [6] [µg/mL],MIC ([8]; strain 930) [µg/mL],MIC ([8]; strain EES61) [µg/mL],MIC ([9]; strain DC-2) [µg/mL],MIC ([9]; strain H560) [µg/mL],MIC ([9]; strain JUHL) [µg/mL],MIC ([9]; strain KNK 437) [µg/mL],MIC ([9]; strain SS) [µg/mL],"MIC ([10]; strain 9341, BHI agar) [µg/mL]",also measured
"CC[C@H]1OC(=O)[C@H](C)[C@@H](O[C@H]2C[C@@](C)(OC)[C@@H](O)[C@H](C)O2)[C@H](C)[C@@H](O[C@@H]2O[C@H](C)C[C@H](N(C)C)[C@H]2O)[C@](C)(OC)C[C@@H](C)C(=O)[C@H](C)[C@H]2N(C3CC3)C(=O)O[C@]12C [Example 5, 11-deoxy-6-O-methyl erythromycin A 11,12-(N-cyclopropyl)cyclic carbamate]",> 100,> 100,100,> 100,0.39,0.2,0.39,1.56,0.39,0.39,0.02,0.02,> 100,0.02,100,25,50,100,0.2,0.05,"MIC ([2]; strain K799/61): 6.2 µg/mL; MIC [4, 19]: 0.39 µg/mL; MIC [7, 21]: 0.1 µg/mL; MIC ([10]; strain 4698, BHI agar): 0.2 µg/mL; MIC [11]: 0.05 µg/mL; MIC [12, 22]: 100 µg/mL; MIC [13]: 100 µg/mL; MIC [14]: > 100 µg/mL; MIC [15]: 25 µg/mL"
"CC[C@H]1OC(=O)[C@H](C)[C@@H](O[C@H]2C[C@@](C)(OC)[C@@H](O)[C@H](C)O2)[C@H](C)[C@@H](O[C@@H]2O[C@H](C)C[C@H](N(C)C)[C@H]2O)[C@](C)(OC)C[C@@H](C)C(=O)[C@H](C)[C@H]2N(Cc3ccccc3)C(=O)O[C@]12C [Example 3, 11-deoxy-6-O-methyl erythromycin A 11,12-(N-benzyl)cyclic carbamate]",> 100,> 100,25,> 100,0.39,0.1,0.39,0.78,0.39,0.2,0.02,0.02,100,0.02,25,6.2,25,25,0.39,0.05,"MIC ([2]; strain K799/61): 3.1 µg/mL; MIC [4]: 0.2 µg/mL; MIC ([7]; ATCC8043): 0.1 µg/mL; MIC [11]: 0.05 µg/mL; MIC [12, 22]: 50 µg/mL; MIC [13]: 25 µg/mL; MIC [14]: 50 µg/mL; MIC [15]: 50 µg/mL"
"CC[C@H]1OC(=O)[C@H](C)[C@@H](O[C@H]2C[C@@](C)(OC)[C@@H](O)[C@H](C)O2)[C@H](C)[C@@H](O[C@@H]2O[C@H](C)C[C@H](N(C)C)[C@H]2O)[C@](C)(OC)C[C@@H](C)C(=O)[C@H](C)[C@H]2N(CCN(C)C)C(=O)O[C@]12C [Example 9, 11-deoxy-6-O-methyl erythromycin A 11,12-[N-(2-dimethylamino)ethyl]cyclic carbamate]",–,–,–,–,–,–,–,–,–,–,–,–,–,–,–,–,–,–,–,–,"MIC ([16]; ATCC9006, strain ATCC 9006): 0.25 µg/mL; MIC ([16]; ATCC9795, strain ATCC 9795): 0.25 µg/mL; MIC ([16]; ATCC10211, strain ATCC 10211): 0.5 µg/mL; MIC ([16]; ATCC19418, strain ATCC 19418): 0.5 µg/mL; MIC ([16]; strain 504): 1 µg/mL; MIC ([16]; strain 519A): 0.5 µg/mL; MIC ([16]; strain 566A): 0.5 µg/mL; MIC ([16]; strain 588A): 0.25 µg/mL; MIC ([16]; strain 632A): 0.5 µg/mL; MIC ([16]; strain 667A): 0.25 µg/mL; MIC ([16]; strain 747C): 0.25 µg/mL; MIC ([16]; strain 751): 0.25 µg/mL; MIC ([16]; strain 1177): 0.5 µg/mL; MIC ([16]; strain 1435): 0.12 µg/mL; MIC ([16]; strain 5036B): 0.5 µg/mL; MIC ([16]; strain DILL AMP R): 0.25 µg/mL; MIC ([16]; strain SOL AMP R): 0.25 µg/mL; MIC ([16]; strain SPK AMP R): 0.25 µg/mL; Gastrointestinal Motility Index [17]: .013; gastointestinal motility and associated side-effects [18]: much less gastointestinal motility and associated side-effects than the parent erythromycin compound"
"CC[C@H]1OC(=O)[C@H](C)[C@@H](O[C@H]2C[C@@](C)(OC)[C@@H](O)[C@H](C)O2)[C@H](C)[C@@H](O[C@@H]2O[C@H](C)C[C@H](N(C)C)[C@H]2O)[C@](C)(OC)C[C@@H](C)C(=O)[C@H](C)[C@H]2N(C)C(=O)O[C@]12C [Example 4, 11-deoxy-6-O-methyl erythromycin A 11,12-(N-methyl)cyclic carbamate]",> 100,100,50,100,0.1,0.1,0.2,0.39,0.1,0.2,0.02,0.02,> 100,0.01,25,12.5,25,50,0.1,0.01,"MIC ([2]; strain K799/61, read-out: MIC): 0.78 µg/mL; MIC [4, 19]: 0.2 µg/mL; MIC [7, 21]: 0.05 µg/mL; MIC ([10]; strain 4698, BHI agar): 0.05 µg/mL; MIC [11]: 0.01 µg/mL; MIC ([12]; ATCC10348, strain ATCC 10348): 50 µg/mL; MIC [13]: 50 µg/mL; MIC [14]: 100 µg/mL; MIC [15]: 12.5 µg/mL; Gastrointestinal Motility Index [17]: 1.27"
